Reference: ChEMBL document CHEMBL3600308, “Antiproliferative Trihydroxyalkylcyclohexenones from Pleiogynium timoriense” (J Nat Prod, 2015)

These molecules were tested on A2780 (assay: Antiproliferative activity against drug-sensitive human A2780 cells assessed as inhibition of cell growth after 2 days by Alamar Blue assay). Settings: A2780, 48 h.
Format: functional, cell-based

**Q.** With `CCCCCCCC/C=C\CCCCCCC[C@]1(O)C(=O)C=C[C@H](O)[C@H]1O` as the molecule, how does the IC50 read?
**A.** 800 nM

**Q.** With `CCCCCCCC/C=C\CCCCCCCCC[C@]1(O)C(=O)C=C[C@H](O)[C@H]1O` as the molecule, how does the IC50 read?
**A.** 700 nM

**Q.** How did the IC50 turn out when `CCCCCCCC/C=C\CCCCCCCCCCC[C@]1(O)C(=O)C=C[C@H](O)[C@H]1O` was run?
**A.** 800 nM
